Non-standard residues stand in square brackets, D forms with d. Residues, ends and D or L forms follow the SMILES beside them. 1Nal = N[C@@H](Cc1cccc2ccccc12)C(=O)O
What was measured:
[1] = test system: IκB; test: IκB protein level by Western blot in hypoxic cardiomyocytes; type: cell-based; conditions: normalized to β-actin
Experimental: Frozen tissue/cell cultures of liver or heart were pulverized under liquid nitrogen and placed in a homogenization buffer ([…] phosphate buffer, […] sucrose, […] EDTA, […] phenylmethylsulfonyl fluoride (PMSF), and 0.1% vol/vol tergitol, pH 7.5). Myocytes from cell cultures were homogenized in lysis buffer.
Homogenates were centrifuged at 12K rpm for 10 minutes at 4° C., the supernatant was isolated, and protein levels were visualized by immunoblotting with antibodies. Briefly, proteins (60 μg/sample) were separated using SDS-PAGE gel (12%-15%) under denaturing conditions and electro-transferred (blotted) onto nitrocellulose (Bio-Rad) for 1 hour at 100 V. Membranes were blocked with 5% nonfat milk in Tris-buffered saline with 0.1% Tween® 20 (TBST) for 1 hour at room temperature. Primary antibodies were used at a 1:200-1:1000 concentration in TBST with 5% nonfat milk overnight at 4° C. Immunodetection of β-actin/GPDH was performed as an internal control. Dye 800/680 secondary antibodies were added at a concentration of 1:15000 for 1 hour at room temperature (LI-COR® Biosciences, NE, USA). Detection was carried out with LI-CORE® Odyssey® imaging system. Quantification of signals was carried out with the Odyssey® program.
The mechanism of action of peptidomimetics of SEQ ID NOs:1, 2 and 12 was studied in vitro in cardiomyocytes, under hypoxic conditions, by determining the expression level of the IκB gene, which is regulated by activation of TLR4, and by measuring the TLR4 mRNA levels. In addition, TLR4 expression level was measured in macrophage (derived from monocytes) treated with LPS.
IκB protein level was determined by Western blot as described in Material and Methods. The amount of IκB was normalized via-a-vis the amount of β-actin serving as the loading control (the β-actin is coded by a housekeeping gene and its level is expected to remain constant under any experimental conditions).

[2] = test system: primary cardiomyocytes; test: CK and LDH release by primary cardiomyocytes under LPS treatment (sepsis like); type: cell-based, Rat; conditions: LPS system; 10 μM
Experimental: (§1) Rat hearts (1-2 days old) were removed under sterile conditions and washed three times in phosphate-buffered saline (PBS) to remove excess blood cells. The hearts were minced and then gently agitated in RBD (a solution of proteolytic enzymes (Biological Institute, Ness-Ziona, Israel) prepared from fig tree extract, and diluted 1:100 in Ca^2+- and Mg^2+-free PBS) for a few cycles of 10 min each. Dulbecco's modified Eagle's medium (Biological Industries, Kibbutz Beit Haemek, Israel) containing 10% horse serum was added to supernatant suspensions containing the dissociated cells. The mixture was centrifuged at 1400 rpm for 4 min. The supernatant phase was discarded, and the cells were re-suspended. The cell suspension was diluted to 1.0×10^6 cells/ml, unless stated otherwise, and 1.5 ml of the suspension was placed in 35-mm plastic culture dishes collagen- or gelatin-coated, or on coated cover glasses. The cultures were incubated in a humidified atmosphere of 5% CO2 and 95% air at 37° C.
(§2) Primary cardiomyocytes which were obtained by method described above, were treated with exemplary decoy peptides described herein. After 30 minutes of incubation, sepsis like (LPS treatment for 6 hours), or myocardial infarction (MI) like (hypoxia for 3 hours) conditions were imposed to measure the release of CK and LDH to the medium and determine the potential cardioprotective effect of the tested decoy peptides. Cytotoxicity and level of cell damage were assessed by spectrophotometric measurement of lactate dehydrogenase (LDH) and creatine kinase (CK) activities (at 30° C.). Results are presented as CK and LDH release in arbitrary units (a.u.)
(§3) Activity of LDH and CK was determined in the cell-culture medium (25 μl) transferred into 96-well plates, using commercial L-LDH/CK kits (such as those manufactured, e.g., by Sigma-Aldrich, BioVision™ or Thermo Fisher Scientific®).
(§4) Primary cardiomyocytes were treated with peptides and peptidomimetics of SEQ ID NOs:1-7 provided at concentrations ranging from 1 μM to 20 μM. Following 30 minutes of incubation, sepsis like (LPS treatment for 6 hours) or MI like (hypoxia for 3 hours) conditions were induced to determine the potential cardioprotective effect of the tested compounds. Creatine kinase (CK) and lactate dehydrogenase (LDH) activity were assayed to determine the level of cellular damage and cell protection effect. The experimental procedure is described in Materials and Methods above. Results are presented as CK and LDH release in arbitrary units (a.u.).

[3] = target: T1, TLR4 (Homo sapiens, UniProt O00206); test: FACS analysis of TLR4 expressed by macrophages exposed to LPS; type: cell-based; conditions: 10 μM
T1 construct: FACS analysis to test the expression of TLR4 protein by macrophages under LPS treatment; endogenous in cells; host or cells: human peripheral-blood monocytes differentiated into macrophages with M-CSF
T1 sequence (O00206 24-839): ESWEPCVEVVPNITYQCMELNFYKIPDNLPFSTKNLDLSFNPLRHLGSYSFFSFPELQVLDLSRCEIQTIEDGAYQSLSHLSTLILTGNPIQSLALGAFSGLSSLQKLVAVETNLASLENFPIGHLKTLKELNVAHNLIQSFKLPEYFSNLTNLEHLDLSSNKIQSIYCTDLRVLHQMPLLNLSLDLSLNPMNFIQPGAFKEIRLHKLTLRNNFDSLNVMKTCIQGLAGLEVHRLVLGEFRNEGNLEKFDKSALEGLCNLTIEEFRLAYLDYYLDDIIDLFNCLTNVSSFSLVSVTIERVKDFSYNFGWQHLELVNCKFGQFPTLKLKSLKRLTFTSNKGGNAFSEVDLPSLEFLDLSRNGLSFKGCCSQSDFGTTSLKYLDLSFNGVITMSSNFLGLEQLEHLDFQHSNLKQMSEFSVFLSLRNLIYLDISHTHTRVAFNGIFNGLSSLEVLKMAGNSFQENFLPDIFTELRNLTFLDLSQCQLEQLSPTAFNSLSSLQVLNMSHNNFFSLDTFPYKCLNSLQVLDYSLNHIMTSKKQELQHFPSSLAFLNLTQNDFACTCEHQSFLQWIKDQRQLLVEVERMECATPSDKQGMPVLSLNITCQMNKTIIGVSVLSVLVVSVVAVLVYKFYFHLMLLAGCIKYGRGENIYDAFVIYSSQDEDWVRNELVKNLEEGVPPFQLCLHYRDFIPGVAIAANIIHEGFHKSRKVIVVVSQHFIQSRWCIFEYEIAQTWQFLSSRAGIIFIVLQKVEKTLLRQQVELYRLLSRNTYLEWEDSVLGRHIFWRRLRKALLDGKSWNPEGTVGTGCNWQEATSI
Experimental: Flow cytometry is an analytical cell-biology technique that utilizes light to count and profile cells in a heterogenous fluid mixture. Flow cytometry analysis was used to evaluate binding of antibodies to TLR4 presenting cells. In this assay, an anti-TLR4 antibody was added to a monocytes suspension and cells which bound the antibody were visualized by a fluorescently labeled secondary antibody that bound to the anti-TLR4 antibody (Ab). Accordingly, samples were first “labeled” with the anti-TLR4 antibody, then incubated with Fluor® 488 conjugated to a secondary Ab for TLR4 (CD284) positive cells visualization.
In order to confirm the specificity of binding, and further in order to correct for non-specific or background staining, isotypes control mouse IgGs were added to cell suspensions at the same concentration as the anti-TLR4 Abs. To deduct the non-specific or background staining from the positive staining due to direct Ab binding to the antigen, the level of background staining was assessed by the use of the same fluorochrome as that used for staining the anti-TLR4 Ab.
Peripheral blood (30 ml) was obtained for the isolation of monocytes. Monocytes were purified by density gradient centrifugation as described above, and/or by adherence to plastic in RPMI 1640 medium supplemented with 10% fetal bovine serum (FBS) and antibiotics. Peripheral blood mononuclear cells (PBMCs) (10^6 cells/ml) were first seeded into 24-well plates (0.5 ml per well), after 2 hours, non-adherent cells were removed by several washes with warm PBS.
Monocytes freshly isolated either by density gradient centrifugation by adherence differentiated into macrophages in complete RPMI 1640 medium supplemented with human recombinant macrophage colony stimulating factor (100 ng/ml) for 6 days. To confirm macrophage cell lineage, direct immunostaining was performed with an antibody directed against CD11b/mac1 (Biolegend® Inc., San Diego, Calif., USA). Eighty percent (80%) of positive staining was observed by flow cytometry analysis. The proportion of TLR4 in this separated cell fraction was examined by FACS analysis using, as isotype control, mouse IgG2a IsoControl (eBioscience™ #53-4724-80), and mouse anti-human CD284 Alexa Fluor® 488 Clone FITA125 secondary Ab (Isotype IgG2a. eBioscience™ #53-9917-41), which recognizes the human TLR4 (also known as CD284) cell surface antigen. Cells were analyzed in a BC Gallios Flow Cytometer (Beckman Coulter, Indianapolis Ind., USA) and were initially gated on the basis of forward and side scatter characteristics. Kaluza Software was used to analyze the results. Results are expressed as mean fluorescence intensity (MFI) and also as normalized to control. […]

[4] = test system: TLR4 mRNA; test: TLR4 mRNA level by RT-qPCR in hypoxic cardiomyocytes; type: cell-based; conditions: hypoxic conditions
Experimental: (§5) Real-time RT-PCR experiments were performed in duplicates on an ABI 7900 instrument (Applied Biosystems™) using Taqman™ Master Mix (Applied Biosystems™). The average threshold cycles (Ct) of the duplicates were used to calculate the relative expression levels of the following genes: TLR4 (Applied Biosystems™ assay primer ID: Mm00569848_m1 Tlr4), TLR2 (assay primer ID: Mm01769726_m1 Tlr2), TNF-α (assay primer ID: Mm00443260_g1 Tnf) and IL-1β (assay primer ID: Mm00434228_m1 II1b) in vitro and in vivo following hypoxia or ischemia, respectively. The reference gene was TBP and the primer used was derived from mouse TATA-box binding protein (Applied Biosystems™ assay primer ID: Mm00446973_m1 Tbp). Amounts of TLR2, TLR4, TNF-α and IL-1β mRNAs in each sample were calculated relative to TBP mRNA, based on the corresponding Cts, as Relative Quantity (RQ) values, and normalized taking as 1 a randomly selected sample of the control group (TBP mRNA). Calculation were performed using the Applied Biosystems Analysis™ software (StepOnePlus V2.2.2). All mRNA scores are presented in arbitrary units.
Next, peptidomimetics of SEQ ID NOs:1 and 2 were tested for their ability to affect the expression of TLR4. The level of TLR4 mRNA was measured by real-time reverse transcriptase polymerase chain reaction (RT-qPCR) method as described in Materials and Methods. The possible effect of both compounds on expression levels of TLR2 mRNA was used as a negative control.

[5] = test system: TLR2 mRNA; test: TLR2 mRNA level by RT-qPCR in hypoxic cardiomyocytes (negative control); type: cell-based; conditions: hypoxic conditions
Experimental: as §5
Next, peptidomimetics of SEQ ID NOs:1 and 2 were tested for their ability to affect the expression of TLR4. The level of TLR4 mRNA was measured by real-time reverse transcriptase polymerase chain reaction (RT-qPCR) method as described in Materials and Methods. […]

[6] = test system: primary cardiomyocytes; test: CK and LDH release by primary cardiomyocytes under hypoxia (MI like); type: cell-based, Rat; conditions: 10 μM, FIGS. 2A, 2B
Experimental: as §1
Using a vacuum pump, the oxygen rich air was evacuated from an incubator containing plates with cell cultures, and a 100% Argon atmosphere was let in, while maintaining a temperature of 37° C. The cell cultures were washed with PBS twice to remove glucose from the medium. Hypoxic treated cells were cultures in PBS without glucose. These cells lasted for 180 minutes.
as §2, §3, §4

CC[C@H](C)[C@H](NC(C)=O)C(=O)N[C@H](C(=O)NC(C(=O)N[C@@H](C)C(N)=O)c1cccc2ccccc12)C(C)C (stereo partly drawn) [SEQ ID NO:12, (2S,3S)-2-acetamido-N-((2S)-1-((2-(((S)-1-amino-1-oxopropan-2-yl)amino)-1-(naphthalen-1-yl)-2-oxoethyl)amino)-3-methyl-1-oxobutan-2-yl)-3-methylpentanamide]
IκB level [1]: high levels

CC(C)[C@H](NC(=O)CN[C@@H](C)C(C)(C)C)C(=O)N[C@@H](Cc1ccccc1)C(=O)N[C@@H](C)C(N)=O [SEQ ID NO:17, (S)-N-((S)-1-(((S)-1-amino-1-oxopropan-2-yl)amino)-1-oxo-3-phenylpropan-2-yl)-2-(2-(((S)-3,3-dimethylbutan-2-yl)amino)acetamido)-3-methylbutanamide]
cellular protection / cytoprotective effect (CK and LDH release) [2]: significant cytoprotective effect

CC(=O)N[C@H](C(=O)N[C@@H](Cc1ccccc1)C(=O)N[C@@H](C)C(=O)N[C@@H](CCC(=O)O)C(N)=O)C(C)C [SEQ ID NO:2, (4S,7S,10S,13S)-7-benzyl-13-carbamoyl-4-isopropyl-10-methyl-2,5,8,11-tetraoxo-3,6,9,12-tetraazahexadecan-16-oic acid] (Ac-VFAE-NH2)
TLR4 expression level ([3]; 30 min before LPS (100 ng/ml or 20 μg/ml), 4 hours): toward baseline levels
lowering the expression of TLR4 in the presence of LPS, compared with SEQ ID NO: 25 ([3]; low and high LPS): more effective
TLR4 mRNA expression level [4]: significantly decreased
TLR2 mRNA expression level [5]: relatively unaffected

CC(=O)N[C@@H](Cc1ccccc1)C(=O)NCCC(=O)N[C@@H](CCC(=O)O)C(N)=O [SEQ ID NO:9, (S)-4-(3-((S)-2-acetamido-3-phenylpropanamido)propanamido)-5-amino-5-oxopentanoic acid]
cell protective effect (CK and LDH release) [6]: substantial cell protective effect

CC(=O)N[C@H](C(=O)N[C@@H](Cc1cccc2ccccc12)C(=O)N[C@@H](C)C(=O)N[C@@H](CCC(=O)O)C(N)=O)C(C)C [SEQ ID NO:19, (4S,7S,10S,13S)-13-carbamoyl-4-isopropyl-10-methyl-7-(naphthalen-1-ylmethyl)-2,5,8,11-tetraoxo-3,6,9,12-tetraazahexadecan-16-oic acid] (Ac-V[1Nal]AE-NH2)
cellular protection / cytoprotective effect (CK and LDH release) [2]: significant cytoprotective effect

CC(=O)NC(C(=O)N[C@@H](C)C(=O)N[C@@H](CCC(=O)O)C(N)=O)c1cccc2ccccc12 (stereo partly drawn) [SEQ ID NO:11, (4S)-4-((2S)-2-(2-acetamido-2-(naphthalen-1-yl)acetamido)propanamido)-5-amino-5-oxopentanoic acid]
cell protective effect (CK and LDH release) [6]: substantial cell protective effect

CC(=O)N[C@@H](Cc1ccccc1)C(=O)N[C@@H](C)C(=O)N[C@@H](CCC(=O)O)C(N)=O [SEQ ID NO:8, (S)-4-((S)-2-((S)-2-acetamido-3-phenylpropanamido)propanamido)-5-amino-5-oxopentanoic acid] (Ac-Phe-Ala-Glu-NH2)
cell protective effect (CK and LDH release) [6]: substantial cell protective effect

Source: patent US11925643B2, “Toll-like receptor 4 (TLR4) inhibitors and use thereof” (MOR RESEARCH APPLICATIONS LTD., priority 2018, dated 2024)
